Experimental data taken from patent US20250297225A1, “MULTIPLE HEART TISSUE CULTURE FUSION” (IMBA - INSTITUT FÜR MOLEKULARE BIOTECHNOLOGIE GMBH, priority 2022, published 2025).
“Also recorded” adds a separate entry of the source.

Columns and labels:
[1] = system: cardioids (LV, RV, OFT, Atria, AVC); conditions: for dosage at which severe compartment-specific and stage-specific effects were observed: human
Procedure: All cardioids were treated with the teratogens from mesoderm induction (day 0) until day 9.5.
All cardioids were treated with the teratogens from mesoderm induction (day 0) until day 9.5. *p<0.05, **p<0.01, ***p<0.001, ****p<0.0001.
hPSCs (WTC or H9 lines) are seeded in a 24-well plate (TPP, #92024) at 30-40 k cells per well in E8 medium+ROCKi (5 μM Y-27632, Tocris #1254). […] The medium contains BSA which is important for efficient cardioid generation. 24 hours after seeding in the 24-well plate, the cells are induced with mesoderm induction media. Mesoderm induction media is made up of CDM containing FGF2 (30 ng/ml, QKine, Cambridge/UK), LY294002 (5 μM, Tocris, #1130), Activin A (specific concentrations for different cardioid subtypes-see below, QKine, Cam-bridge/UK), BMP4 (10 ng/ml, R&D Systems RD-314-BP-050), and CHIR99021 (specific concentrations for different cardioid subtypes—see below, R&D Systems RD-4423/50). After 36-40 hours cells are dissociated with TrypleE (Gibco, #12605010) and seeded in a Corning ultra-low attachment 96 well plate (Corning, #7007) at 15-20 k cells/well in Cardiac Mesoderm Patterning Media One made up of CDM containing ROCK inhibitor and for all protocols besides the LV 1 μg/ml of insulin (Roche, #11376497001) plus specific factors depending on cardioid subtype (see below). After seeding, the cells are spun down in a centrifuge for 4 mins at 200 g. This protocol is termed 2D-3D standard protocol. Alternatively, hPSCs were seeded into Corning ultra-low attachment 96 well plate with a density of 5000 cells/well. Cells were seeded in a volume of 200 ml containing E8+ROCKi and collected by centrifugation for 5 minutes at 200 g. As another option, 2500 cells/well were seeded directly into induction media+ROCKi and collected by centrifugation for 5 minutes at 200 g. For both protocols, cells were induced with mesoderm induction media as described for the 2D->3D protocol. These were termed 3D protocols. For both protocols, 24 hours later (or at day 2.5) the cells are fed with Cardiac Mesoderm Patterning Media One. For the next two days, the medium is changed to Cardiac Mesoderm Patterning Media Two made up of CDM containing specific factors depending on the cardioid subtype (see below) and exchanged every day. For the subsequent two days, media is exchanged every day with Cardiomyocyte Differentiation Media CDM medium containing BMP4 (10 ng/ml), FGF2 (8 ng/ml) and insulin (10 μg/ml). For the subsequent days of culture, media is exchanged every other day with CDM containing insulin (10 μg/ml).
Spinning disk confocal microscopes (Olympus spinning disk system based on an IX3 Series (IX83) inverted microscope, equipped with a Yokogawa W1 spinning disc) were used to image fixed tissue sections. Live imaging was carried out using an inverted widefield microscope for brightfield and fluorescence (Axioobserver Z1 equipped with an sCMOS camera (Hamamatsu Orca Flash 4). Cardioids in 96-well plates were also imaged using a Celigo Imaging Cytometer microscope (Nexcelom Biosciences, LLC).

[2] = system: cardioids (LV, RV, OFT, Atria, AVC); assay: Real-time qPCR of cardioids treated with teratogens; format: cell-based, human
Procedure: The isolated RNA was reverse transcribed to cDNA using the Reverse Transcription Kit (Invitrogen, #18080044) with a C100 Touch Bio-Rad Thermal Cycler. Quantitative PCR was performed using the GoTaq qPCR master mix 2× (Promega, #A6001) with a Bio-Rad CFX384 Real-Time thermal cycler. Values of gene expression of each sample were obtained in triplicates. The Log-fold change of the sample from PBGD as a housekeeping gene and a pluripotent stem cell sample for normalization were used.

[3] = cited from earlier work
[4] = system: FHF and aSHF progenitors / cardioids; assay: Lineage specification of cardiac progenitors/cardioids by retinoic acid dosage; format: cell-based, human; conditions: LV (FHF progenitor), Cardiac Mesoderm Patterning Media One
Procedure: These were termed 3D protocols.
The retinoic acid concentration should be low as a higher concentration (>100 nM) leads to FHF-derived atria, not ventricular fate.
The retinoic acid addition here helps drive the RV identity.

COc1cc(C)c(/C=C/C(C)=C/C=C/C(C)=C/C(=O)O)c(C)c1C [Acitretin]
CM differentiation and morphology of treated cardioids [1]: Inefficient CM differentiation and morphological changes | defects in OFT, atrial, and AVC cardioids [1]: specification, patterning and morphogenesis defects | dosage at which severe compartment-specific and stage-specific effects were observed [1]: 5 nM

CC1=C(/C=C/C(C)=C/C=C/C(C)=C/CO)C(C)(C)CCC1 [All trans Retinol]
gene expression in OFT cardioids (OFT, ventricular, chamber, atrial genes) ([2]; OFT cardioids): downregulation of OFT and upregulation of ventricular genes | effect on all the other cardioid subtypes [1]: unaffected | morphological effect on OFT cardioids [1]: severe morphological effect on OFT cardioids | size difference between treated and untreated cardioids [1]: no size difference between treated and untreated cardioids within one protocol the except LV cardioids treated with 50 nM

CC1=C(/C=C/C(C)=C/C=C/C(C)=C\C(=O)O)C(C)(C)CCC1 [Isotretinoin]
defects in OFT, atrial, and AVC cardioids [1]: specification, patterning and morphogenesis defects | dosage at which severe compartment-specific and stage-specific effects were observed [1]: 1 nM

O=C1CCC(N2C(=O)c3ccccc3C2=O)C(=O)N1 (stereo not shown) [thalidomide]
expression of chamber-specific marker NPPA ([2]; d9.5 cardioids): downregulation of the chamber-specific marker NPPA for all lineages except for the RV and OFT | expression of compartment identity markers (NR2F2, IRX1/4) ([2]; d9.5 cardioids): dosage-specific misregulation of compartment identity markers (NR2F2, IRX1/4) | expression of lineage specific genes ([2]; d9.5 cardioids, fold change normalized to housekeeping gene and pluripotency): mis-regulation of lineage specific genes | human therapeutic plasma concentrations [3]: ~2.4 µM

CC(=O)Oc1ccccc1C(=O)O [Aspirin]
gene expression differences vs control cardioids ([2]; high 30 μM dosage): no obvious gene expression differences; also recorded: neither observed morphological nor significant gene expression differences | size and TNNI-GFP expression compared to untreated cardioids [1]: no size and TNNI-GFP expression differences

CC1=C(/C=C/C(C)=C/C=C/C(C)=C/C(=O)O)C(C)(C)CCC1 [retinoic acid]
retinoic acid concentration that leads to FHF-derived atria, not ventricular fate [4]: > 100 nM
